# Measurements published in patent US12661410B2, “Compounds for targeted degradation of RET” (C4 Therapeutics, Inc., priority 2020, dated 2026).
# Positions count from the first letter of the chain named. Like-named read-outs stand apart in the source and are kept apart here.
# What was measured:
# RET(KD: 658-1114 G810R) = target: T1, RET(KD: 658-1114 G810R) (Homo sapiens, UniProt P07949, G810R); assay: HiBiT-Degradation, RET G810R degradation assay (Nano-Glo HiBiT Lytic), 293T.165 cells; format: cell-based; settings: for Emax / DC50: 6.0 hours
# T1 construct: 658-1114; expressed in transfected cells; host or cells: 293T.165 (293T cells, generated in-house)
# T1 sequence (P07949 658-1114 G810R): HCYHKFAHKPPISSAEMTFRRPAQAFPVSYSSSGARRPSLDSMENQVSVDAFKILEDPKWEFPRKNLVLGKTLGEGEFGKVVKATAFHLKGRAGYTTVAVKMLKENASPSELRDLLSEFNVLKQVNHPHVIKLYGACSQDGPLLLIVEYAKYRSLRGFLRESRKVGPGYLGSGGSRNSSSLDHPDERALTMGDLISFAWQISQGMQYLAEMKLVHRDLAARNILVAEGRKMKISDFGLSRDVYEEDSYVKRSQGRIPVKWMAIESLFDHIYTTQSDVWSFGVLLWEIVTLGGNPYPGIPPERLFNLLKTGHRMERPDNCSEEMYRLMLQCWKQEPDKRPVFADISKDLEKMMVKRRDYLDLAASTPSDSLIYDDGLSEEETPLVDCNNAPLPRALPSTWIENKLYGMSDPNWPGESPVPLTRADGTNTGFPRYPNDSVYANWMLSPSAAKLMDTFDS
# Procedure, shortened: (§1)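 Engineered 293T cells carry a HiBiT tag on the RET kinase domain, either wild type (line 293T.144) or G810R (line 293T.165). Compounds act for 6 h across a 10 μM-top, half-log 11-point range. Lytic HiBiT luminescence gives remaining protein, fitted for DC50 and Emax.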
# RET (658-1114) = target: T2, RET (658-1114) (Homo sapiens, UniProt P07949); assay: HiBiT-Degradation, RET wild-type degradation assay (Nano-Glo HiBiT Lytic), 293T.144 cells; format: cell-based; settings: for DC50 / Emax: 6.0 hours
# T2 construct: 658-1114; expressed in transfected cells; host or cells: 293T.144 (293T cells, generated in-house)
# T2 sequence (P07949 658-1114): T1 sequence (P07949 658-1114 G810R) with R153G
# Procedure, shortened: as §1
# [1] = % remaining protein, read-out: 293T.165 RET(KD: 658-1114 G810R) 6.0 hours (Emax)
# [2] = half-maximal degradation concentration, read-out: 293T.165 RET(KD: 658-1114 G810R) 6.0 hours (DC50)
# [3] = % remaining protein, read-out: 293T.144 RET (658-1114) 6.0 hours (Emax)
# [4] = half-maximal degradation concentration, read-out: 293T.144 RET (658-1114) 6.0 hours (DC50)
Compound,Emax (RET(KD: 658-1114 G810R); [1]) [%],DC50 (RET(KD: 658-1114 G810R); [2]) [nM],HiBiT-Degradation 293T.165 RET(KD: 658-1114 G810R) 6.0 hours (IP) [nM] (RET(KD: 658-1114 G810R); RET G810R),"DC50 (RET(KD: 658-1114 G810R); RET G810R, read-out: HiBiT-Degradation 293T.165 RET(KD: 658-1114 G810R) 6.0 hours (DC50)) [nM]","Emax (RET(KD: 658-1114 G810R); RET G810R, read-out: HiBiT-Degradation 293T.165 RET(KD: 658-1114 G810R) 6.0 hours (Emax)) [%]",HiBiT-Degradation 293T.144 RET (658-1114) 6.0 hours (IP) [nM] (RET (658-1114); RET wild-type),"DC50 (RET (658-1114); RET wild-type, read-out: HiBiT-Degradation 293T.144 RET (658-1114) 6.0 hours (DC50)) [nM]","Emax (RET (658-1114); RET wild-type, read-out: HiBiT-Degradation 293T.144 RET (658-1114) 6.0 hours (Emax)) [%]",293T.165 RET(KD: 658-1114 G810R) 6.0 hours (IP) [nM] (RET(KD: 658-1114 G810R)),293T.144 RET (658-1114) 6.0 hours (IP) [nM] (RET (658-1114)),Emax (RET (658-1114); [3]) [%],DC50 (RET (658-1114); [4]) [nM],293T.165 RET(KD: 658-1114 G810R) 6.0 hours (Emax) (RET(KD: 658-1114 G810R); HiBiT-Degradation),293T.165 RET(KD: 658-1114 G810R) 6.0 hours (IP) [nM] (RET(KD: 658-1114 G810R); HiBiT-Degradation),"DC50 (RET(KD: 658-1114 G810R); HiBiT-Degradation, read-out: 293T.165 RET(KD: 658-1114 G810R) 6.0 hours (DC50)) [nM]",293T.144 RET (658-1114) 6.0 hours (IP) [nM] (RET (658-1114); HiBiT-Degradation),"DC50 (RET (658-1114); HiBiT-Degradation, read-out: 293T.144 RET (658-1114) 6.0 hours (DC50)) [nM]","Emax (RET (658-1114); HiBiT-Degradation, read-out: 293T.144 RET (658-1114) 6.0 hours (Emax)) [%]"
"N#Cc1cnn2cc(-c3cnn(C4CCN(C(=O)CN5CCC(c6ccc(NC7CCC(=O)NC7=O)cc6F)CC5)CC4)c3)nc(-c3ccc(N4CCC(Cc5ccccn5)CC4)nc3)c12 (stereo not shown) [Compound 72, 6-[1-[1-[2-[4-[4-[(2,6-dioxo-3-piperidyl)amino]-2-fluoro-phenyl]-1-piperidyl]acetyl]-4-piperidyl]pyrazol-4-yl]-4-[6-[4-(2-pyridylmethyl)-1-piperidyl]-3-pyridyl]pyrazolo[1,5-a]pyrazine-3-carbonitrile]",< 50,< 50,++++ (< 50 nM = ++++),< 50,< 50,++++ (< 50 nM = ++++),< 50,< 30,,,,,,,,,,
"COc1ccc(CC2(C(=O)NC(C)C)CCN(c3ccc(-c4nc(-c5cnn([C@H]6CC[C@H](N7CCN(c8cc(OC)c(NC9CCC(=O)NC9=O)cc8F)CC7)CC6)c5)cn5ncc(C#N)c45)cn3)CC2)nc1 (stereo partly shown) [Compound 216, 1-[5-[3-cyano-6-[1-[4-[4-[4-[(2,6-dioxo-3-piperidyl)amino]-2-fluoro-5-methoxy-phenyl]piperazin-1-yl]cyclohexyl]pyrazol-4-yl]pyrazolo[1,5-a]pyrazin-4-yl]-2-pyridyl]-N-isopropyl-4-[(5-methoxy-2-pyridyl)methyl]piperidine-4-carboxamide]",< 30,< 100,,,,,,,+++ (<100 nM = +++),++++ (<50 nM = ++++),< 30,< 50,,,,,,
"CCC1(C(=O)NC(C)C)CCN(c2ccc(-c3nc(-c4cnn(C5CCN(CC6(O)CCN(c7ccc(NC8CCC(=O)NC8=O)cc7F)CC6)CC5)c4)cn4ncc(C#N)c34)cn2)CC1 (stereo not shown) [Compound 118, 1-(5-(3-cyano-6-(1-(1-((1-(4-((2,6-dioxopiperidin-3-yl)amino)-2-fluorophenyl)-4-hydroxypiperidin-4-yl)methyl)piperidin-4-yl)-1H-pyrazol-4-yl)pyrazolo[1,5-a]pyrazin-4-yl)pyridin-2-yl)-4-ethyl-N-isopropylpiperidine-4-carboxamide]",< 30,< 50,,,,,,,++++ (<50 nM = ++++),++++ (<50 nM = ++++),< 30,< 50,,,,,,
"N#Cc1cnn2cc(-c3ccc(N4CCN(C(=O)CN5CCC(c6ccc(NC7CCC(=O)NC7=O)cc6F)CC5)CC4)cc3)nc(-c3ccc(N4CC5CC(C4)N5Cc4ccccc4)nc3)c12 (stereo not shown) [Compound 54, 4-[6-(6-benzyl-3,6-diazabicyclo[3.1.1]heptan-3-yl)-3-pyridyl]-6-[4-[4-[2-[4-[4-[(2,6-dioxo-3-piperidyl)amino]-2-fluoro-phenyl]-1-piperidyl]acetyl]piperazin-1-yl]phenyl]pyrazolo[1,5-a]pyrazine-3-carbonitrile]",< 30,< 100,,,,,,,,,,,++++ (< 30% = ++++),++++ (< 50 nM = ++++),< 100,++++ (< 50 nM = ++++),< 50,< 30
